Consider 4 compounds from article PMC11184554, “Nature-Inspired Gallinamides Are Potent Antischistosomal Agents: Inhibition of the Cathepsin B1 Protease Target and Binding Mode Analysis” (ACS Infectious Diseases, 2024).

As usually defined, the IC50 is the midpoint of a concentration-inhibition curve. Low values mean higher potency, high ones lower potency.

One experiment deals with SmCB1 (Schistosoma mansoni, UniProt Q8MNY2, T185A/T300A). The experiment in a line: SmCB1 IC50 determination with 30 min preincubation. Type of experiment: biochemical, S. mansoni. Here is the method: Inhibition measurements were performed in duplicate in 96-well microplates (100 μL assay volume) at 37 °C. SmCB1 (40 pM) was added to a mixture of the fluorogenic substrate Cbz–Phe–Arg–AMC (25 μM) and an inhibitor (0–100 μM) in 0.1 M sodium acetate, pH 5.5, containing 2.5 mM dithiothreitol and 0.01% (w/v) BRIJ 35. Substrate hydrolysis was monitored in an Infinite M1000 microplate reader (Tecan) at excitation and emission wavelengths of 360 and 465 nm, respectively, for up to 150 min. An observed first-order rate constant, kobs, was calculated at each inhibitor concentration by fitting the progress curve to the equation P = vi/kobs(1 – exp(−kobst)) + d where P is the product formation, t is the reaction time, vi is the initial velocity, and d is the offset. […] The second-order rate constant, k2nd, (and SE value) was determined by fitting the linear equation kobs = (k2nd[I])/(1 + [S]/Km), where [S] is the substrate concentration, [I] is the inhibitor concentration, and KM is the Michaelis–Menten constant. The KM value determined for SmCB1 was 25 μM. […] To determine IC50 values, SmCB1 (40 pM) was preincubated with the inhibitor (0–100 μM) for 30 min under assay conditions as described above, followed by the addition of the fluorogenic substrate Cbz–Phe–Arg–AMC (20 μM). Substrate hydrolysis was monitored for 30 min in a microplate reader as described above. The IC50 values were determined by nonlinear regression using GraFit software (Erithacus Software).

In experiment [1] the test system is cathepsins B and L (SmCatB/L). Briefly: Protease activity in extracts of adult worms treated with gallinamides, Cbz–Phe–Arg–AMC. Type of experiment: cell-based, S. mansoni. The conditions noted are these: adult worms incubated with 5 μM compound for 24 h (Figure 2 legend: 48 h); extract assayed with Cbz–Phe–Arg–AMC at pH 5.5. How it is done: (§1) Adult mixed sex S. mansoni were incubated in the presence of 5 μM gallinamide A, 1, 6, or 9 for 24 h, and protein extracts therefrom were assayed with the cathepsins B and L substrate, Cbz–Phe–Arg–AMC. Protease activity was reduced by ∼95% relative to the activity of untreated controls (Figure 2A). For comparison, we also quantified the activity of the nondigestive proteolytic enzyme, S. mansoni prolyl oligopeptidase (SmPOP). This serine protease, which is localized in the tegument of adult worms, was assayed with the selective substrate Cbz–Gly–Pro–AMC.[44] SmPOP was unaffected by the gallinamide treatment.
(§2) Figure 2 SmCB1 is a target for gallinamides in adult S. mansoni. (A) Mixed sex, adult S. mansoni were incubated for 48 h with 5 μM gallinamide A or 1, 6, and 9. After washing and preparation of worm extract, proteolytic activities (0.2 μg of protein) were measured in a kinetic assay using the cathepsin B and L substrate, Cbz–Phe–Arg–AMC (SmCatB/L, gray bars) at pH 5.5 or the prolyl oligopeptidase substrate, Cbz–Gly–Pro–AMC (SmPOP, white bars) at pH 8.0. Means ± SE of three replicates are normalized to the control not exposed to the inhibitor (set as 100%). (B–D) Imaging of SmCB1 using the gallinamide compound 5 as an activity-based probe. 5 contains an alkyne tag that can be modified by a copper-catalyzed click reaction with a fluorescent reagent (Alexa Fluor 647-azide) (B). Recombinant SmCB1 (rSmCB1, 0.5 μg) (C) or extracts of adult S. mansoni worms (7 μg of protein) (D) were incubated with 5 (10 μM) for 1 h and then clicked. Reactions were resolved by SDS-PAGE, and gels were visualized using a fluorescence scanner (Probe), stained for protein using Coomassie Brilliant Blue (CBB), or analyzed by Western blot with an anti-SmCB1 antibody (WB). In a control experiment, rSmCB1 or worm extract was treated with the […] protease inhibitor E-64 (10 μM), prior to incubation with 5. The positions of rSmCB1, native SmCB1, and its pro-form (pro-SmCB1) are indicated. The mass difference between rSmCB1 and native SmCB1 is caused by glycosylation (see Methods). The active site of the pro-SmCB1 is shielded by a propeptide[45] that prevents effective binding of 5. […]
(§3) Proteolytic activities in S. mansoni adult extracts were measured in a continuous kinetic assay using the following peptidyl fluorogenic substrates (Bachem) or internally quenched FRET substrates (IOCB): 50 μM Cbz–Phe–Arg–AMC for cathepsins B and L,[13],[15] […] Substrate hydrolysis was measured continuously using an Infinite M1000 microplate reader (Tecan) at excitation and emission wavelengths of 360/465 nm for AMC substrates and 320/420 nm for FRET substrates. […]

Experiment [2] concerns S. mansoni prolyl oligopeptidase (SmPOP). The experiment in a line: Protease activity in extracts of adult worms treated with gallinamides, Cbz–Gly–Pro–AMC. The conditions noted are these: adult worms incubated with 5 μM compound for 24 h (Figure 2 legend: 48 h); extract assayed with Cbz–Gly–Pro–AMC at pH 8.0. Type of experiment: cell-based. Here is the method:
as §1, §2, §3

Sequence of SmCB1 (Q8MNY2 87-340 T185A/T300A): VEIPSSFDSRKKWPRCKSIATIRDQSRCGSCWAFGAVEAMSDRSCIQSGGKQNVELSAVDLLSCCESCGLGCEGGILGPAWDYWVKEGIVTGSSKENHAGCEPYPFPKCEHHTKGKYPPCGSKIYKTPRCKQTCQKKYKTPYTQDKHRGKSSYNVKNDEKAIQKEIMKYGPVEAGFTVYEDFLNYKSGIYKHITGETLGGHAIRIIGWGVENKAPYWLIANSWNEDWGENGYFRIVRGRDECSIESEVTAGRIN

At SmCB1, `CCC(C)C(C(=O)OC(CC(C)C)C(=O)NC(CC(C)C)C(=O)NC(C)C=CC(=O)N1C(=O)C=C(OC)C1CC(C)C)N(C)C` (centres unmarked) [compound 1] showed an IC50 of 92 nM. For the same compound, the “protease activity reduced relative to untreated controls” value in experiment [1] is listed as roughly 95%. Moreover, the “SmPOP activity after gallinamide treatment” value (shortened to “SmPOP activity”) in experiment [2] is “unaffected”.

`COC1=CC(=O)N(C(=O)/C=C/[C@H](C)NC(=O)[C@H](CC(C)C)NC(=O)[C@H](CC(C)C)OC(=O)[C@H](Cc2ccccc2)N(C)C)[C@H]1Cc1ccccc1` [compound 6] yielded an IC50 against SmCB1 of 517 nM. Further, the “protease activity reduced relative to untreated controls” value in experiment [1] is given as roughly 95%. The “SmPOP activity” value in experiment [2] is on record as “unaffected”.

Consider `CCC(C)C(C(=O)OC(CC(C)C)C(=O)NC(CC(C)C)C(=O)NC(C)C=CC(=O)N1C(=O)C=C(OC)C1Cc1ccccc1)N(C)C` (centres unmarked) [compound 9], for which the “protease activity reduced relative to untreated controls” value in experiment [1] was roughly 95%. Also, in experiment [2], the “SmPOP activity” value was “unaffected”.

As to `CC[C@H](C)[C@@H](C(=O)O[C@@H](CC(C)C)C(=O)N[C@@H](CC(C)C)C(=O)N[C@@H](C)/C=C/C(=O)N1C(=O)C=C(OC)[C@@H]1C)N(C)C` [gallinamide A], the IC50 against SmCB1 came to 44 nM. The “protease activity reduced relative to untreated controls” value in experiment [1] is roughly 95%. In experiment [2], the “SmPOP activity” value is on record as “unaffected”.
